Measurements as given in the Deep4Chem optical property database.

Assay: photoluminescence quantum yield (fraction); solvent given as SMILES
[1] = in O=P(c1ccccc1)(c1ccccc1)c1ccccc1Oc1ccccc1P(=O)(c1ccccc1)c1ccccc1

With `COc1ccc(C2=C3C=C(/C=C/C(=O)OC(C)(C)C)C=[N+]3[B-](F)(F)n3cccc32)cc1` the photoluminescence quantum yield (in ClCCl) was 0.13.
For `CCCn1c(=O)c(/C=C/c2nc3ccc(C)cc3n(CCC)c2=O)nc2ccc(C)cc21`, the photoluminescence quantum yield (in C1COCCO1) was 0.2, the photoluminescence quantum yield (in CC#N) was 0.15 and the photoluminescence quantum yield (in ClCCl) was 0.21.
`CC(C)(C)OC(=O)NC(Cc1ccccc1)C(=O)OCc1ccc2c3cccc4cccc(c5cccc1c52)c43` (centres undefined) showed a photoluminescence quantum yield (in CCO) of 0.86.
In the case of `Cc1cc(=O)oc2cc3c(cc12)c1c2ccccc2c2ccccc2c1c1c2ccccc2c2ccccc2c31`, the photoluminescence quantum yield (in ClC(Cl)Cl) was 0.1.
Work on `COc1ccc(-c2nc(-c3cccc(C#N)c3)[nH]c2-c2ccc(OC)cc2)cc1` yielded a photoluminescence quantum yield (in CO) of 0.06.
For `CCCCN(CCCC)c1ccc2c(c1)C#CC#Cc1cc(N(CCCC)CCCC)ccc1C#Cc1cc(c3cc1C#Cc1ccc(C(F)(F)F)cc1C#CC#Cc1cc(C(F)(F)F)ccc1C#C3)C#C2`, the photoluminescence quantum yield (in ClCCl) was 0.15.
Molecule `CN(C)c1cc(C#N)c(N(C)C)c(C#N)c1` has a photoluminescence quantum yield (in C1CCCCC1) of 0.37, a photoluminescence quantum yield (in C1CCOC1) of 0.54 and a photoluminescence quantum yield (in C1COCCO1) of 0.55. For the same molecule, the photoluminescence quantum yield (in CC1COC(=O)O1) was 0.58, the photoluminescence quantum yield (in CC#N) was 0.53 and the photoluminescence quantum yield (in CC(C)=O) was 0.51. The photoluminescence quantum yield (in CC(C)OC(C)C) was 0.39, the photoluminescence quantum yield (in CCC#N) was 0.47 and the photoluminescence quantum yield (in CCC(C)C) was 0.37. For the same molecule, the photoluminescence quantum yield (in CCCCCC) was 0.38, the photoluminescence quantum yield (in CCCCCCCCO) was 0.58 and the photoluminescence quantum yield (in CCCCCOCCCCC) was 0.46. The photoluminescence quantum yield (in CCCCOC(C)=O) was 0.52, the photoluminescence quantum yield (in CCCCOCCCC) was 0.45 and the photoluminescence quantum yield (in CCCOCCC) was 0.55. It also gave a photoluminescence quantum yield (in CCO) of 0.51, a photoluminescence quantum yield (in CCOC(C)=O) of 0.49 and a photoluminescence quantum yield (in CCOCC) of 0.46. For the same molecule, the photoluminescence quantum yield (in CN(C)C=O) was 0.57, the photoluminescence quantum yield (in CO) was 0.52 and the photoluminescence quantum yield (in CS(C)=O) was 0.55. It also gave a photoluminescence quantum yield (in Cc1ccccc1) of 0.55, a photoluminescence quantum yield (in ClCCCl) of 0.52 and a photoluminescence quantum yield (in ClCCl) of 0.57. It also gave a photoluminescence quantum yield (in N#Cc1ccccc1) of 0.5, a photoluminescence quantum yield (in O) of 0.47 and a photoluminescence quantum yield (in OCC(O)CO) of 0.54. It also gave a photoluminescence quantum yield (in c1ccccc1) of 0.57.
Molecule `CCCCCCc1ccc(-n2c3[n+](c4c5ccccc5c5ccccc5c42)[B-](C)(C)c2cc(N(c4ccccc4)c4ccccc4)ccc2-3)cc1` has a photoluminescence quantum yield (in C1CCOC1) of 0.86, a photoluminescence quantum yield (in CC#N) of 0.73 and a photoluminescence quantum yield (in Cc1ccccc1) of 0.83. The photoluminescence quantum yield (in ClCCl) was 0.88.
`CCOC(=O)C1=C(C(=O)OC)N2CCc3cc(OC)c(OC)cc3C2=C[C@H](c2ccc(Cl)cc2)C12c1ccccc1-c1ccccc12` gave a photoluminescence quantum yield (in ClCCl) of 0.00105.
For `CC(C)(C)c1ccc2c(c1)c1cc(C(C)(C)C)ccc1n2-c1ccc(N(c2ccc(-c3ccc(-c4ccc(N(c5ccc(-n6c7ccc(C(C)(C)C)cc7c7cc(C(C)(C)C)ccc76)cc5)c5ccc(-n6c7ccc(C(C)(C)C)cc7c7cc(C(C)(C)C)ccc76)cc5)cc4)c4nsnc34)cc2)c2ccc(-n3c4ccc(C(C)(C)C)cc4c4cc(C(C)(C)C)ccc43)cc2)cc1`, the photoluminescence quantum yield (in ClCCl) was 0.05.
Work on `CSc1ccc2c(c1)N(CCCN(C)C)c1ccccc1S2` yielded a photoluminescence quantum yield (in CC#N) of 0.003, a photoluminescence quantum yield (in CO) of 0.003 and a photoluminescence quantum yield (in O) of 0.003.
Molecule `O=Cc1cc(O)ccc1O` has a photoluminescence quantum yield (in C1CCOC1) of 0.0001, a photoluminescence quantum yield (in C1COCCO1) of 0.0001 and a photoluminescence quantum yield (in CC#N) of 0.0001. For the same molecule, the photoluminescence quantum yield (in CC(C)=O) was 0.01, the photoluminescence quantum yield (in CCCO) was 0.03 and the photoluminescence quantum yield (in CCO) was 0.04. The photoluminescence quantum yield (in CN(C)C=O) was 0.06, the photoluminescence quantum yield (in CN(C)P(=O)(N(C)C)N(C)C) was 0.14 and the photoluminescence quantum yield (in CNC=O) was 0.14. It also gave a photoluminescence quantum yield (in CO) of 0.0001, a photoluminescence quantum yield (in CS(C)=O) of 0.17 and a photoluminescence quantum yield (in NC=O) of 0.07.
`Cc1c2c(c(C)c3ccccc13)-c1cc3nc4ccccc4nc3cc1-2` gave a photoluminescence quantum yield (in ClC(Cl)Cl) of 0.72.
Work on `CC(=O)NC(Cc1ccc(O)cc1)C(=O)O[Si]1(OC(=O)C(Cc2ccc(O)cc2)NC(C)=O)n2c3c4ccccc4c2/N=C2N=C(/N=c4/c5ccccc5/c(n41)=N/C1=NC(=N\3)/c3ccccc31)c1ccccc1\2` (centres undefined) yielded a photoluminescence quantum yield (in CN(C)C=O) of 0.26.
Molecule `CN1C(=O)/C(=C/c2ccncc2)N=C1c1ccccc1` has a photoluminescence quantum yield (in C1COCCO1) of 0.466, a photoluminescence quantum yield (in CC#N) of 0.048 and a photoluminescence quantum yield (in CCO) of 0.073. It also gave a photoluminescence quantum yield (in CCOC(C)=O) of 0.186 and a photoluminescence quantum yield (in O) of 0.0069.
In the case of `CCCc1ccc2c(c1)cc1n2B2c3c4c-1cccc4cc1cccc(c31)-c1cc3cc(CCC)ccc3n12`, the photoluminescence quantum yield (in C1CCOC1) was 0.39.
Molecule `Clc1ccc(/C=C(\c2ccccc2)c2nc3ccccc3o2)cc1` has a photoluminescence quantum yield (in CO) of 0.002.
With `COc1cccc(-c2nc(-c3ccccc3)c(-c3ccccc3)[nH]2)c1` the photoluminescence quantum yield (in CO) was 0.28.
In the case of `CC1(C)c2ccccc2N(c2ccc(-c3nc(-c4ccccc4)cc(-c4ccccc4)n3)cc2)c2ccccc21`, the photoluminescence quantum yield (in CC#N) was 0.018, the photoluminescence quantum yield (in Cc1ccccc1) was 0.339 and the photoluminescence quantum yield (in ClCCl) was 0.632. For the same molecule, the photoluminescence quantum yield [1] was 0.61.
`c1cc2c3c(c1)ccc1[n+]3[B-]3(Oc4cccc5ccc6[n+](c45)[B-](O2)(O3)n2c-6cc3c4ccccc4c4ccccc4c32)n2c-1cc1c3ccccc3c3ccccc3c12` gave a photoluminescence quantum yield (in ClCCl) of 0.89.
With `CCC(C)(C)c1ccc(-c2ccc(-c3ccccc3)cc2)cc1` the photoluminescence quantum yield (in C1COCCO1) was 0.65.
For `CCCCCCOc1cc(C=C(C#N)C#N)c(OCCCCCC)cc1C=C(C#N)C#N`, the photoluminescence quantum yield (in ClCCl) was 0.868.
In the case of `CC(C)[Si](C#Cc1c2ccccc2c(C#Cc2c3ccccc3c(C#Cc3c4ccccc4c(C#Cc4c5ccccc5c(C#Cc5c6ccccc6c(C#C[Si](C(C)C)(C(C)C)C(C)C)c6ccccc56)c5ccccc45)c4ccccc34)c3ccccc23)c2ccccc12)(C(C)C)C(C)C`, the photoluminescence quantum yield (in Cc1ccccc1) was 0.018.
In the case of `c1ccc(N(c2ccccc2)c2ccc(-c3ccc(-c4nc(-c5ccccn5)n(-c5ccccc5)n4)cc3)cc2)cc1`, the photoluminescence quantum yield (in ClCCl) was 0.392.
`CC(C)(C)c1cc2c(c(C(C)(C)C)c1)O[B-](F)(F)[n+]1c-2nc(-c2ccccc2)c2ccccc21` showed a photoluminescence quantum yield (in Cc1ccccc1) of 0.002.
For `CCOC(=O)CN(CC(=O)OCC)c1ccc(-c2cc(-c3ccccn3)nc(-c3ccccn3)c2)cc1`, the photoluminescence quantum yield (in CC#N) was 0.37, the photoluminescence quantum yield (in CCOC(C)=O) was 0.48 and the photoluminescence quantum yield (in CN(C)C=O) was 0.31. It also gave a photoluminescence quantum yield (in CS(C)=O) of 0.34 and a photoluminescence quantum yield (in c1ccccc1) of 0.5.
With `Nc1ccc2c(ccc3[n+]2[B-](F)(F)n2c-3cc3c4ccccc4c4ccccc4c32)c1` the photoluminescence quantum yield (in ClCCl) was 0.81.
With `CCCC1=Cc2nc1ccc1[nH]c(cc1CCO)c1nc(ccc3[nH]c2cc3CCC)C(CCO)=C1` the photoluminescence quantum yield (in Cc1ccccc1) was 0.4.
`O=C(O)c1ccc(-c2ccc(-c3nc(-c4ccccc4)c4ccccn34)cc2)s1` showed a photoluminescence quantum yield (in CC#N) of 0.44.
In the case of `Cc1nc2c(ccc3c2sc(/C=C/C=C/c2ccc(N(C)C)cc2)[n+]3C)s1`, the photoluminescence quantum yield (in CO) was 0.032 and the photoluminescence quantum yield (in ClC(Cl)Cl) was 0.16.
For `C(=C\c1cnc2ccccc2n1)/c1ccc(-c2ccc(N(c3ccccc3)c3ccccc3)cc2)cc1`, the photoluminescence quantum yield (in ClCCl) was 0.35.
In the case of `Cc1cc(-n2c3ccccc3c3cc4c(cc32)C2c3ccccc3C4c3ccccc32)ccc1-c1nc(-c2ccccc2)nc(-c2ccccc2)n1`, the photoluminescence quantum yield (in Cc1ccccc1) was 0.8 and the photoluminescence quantum yield [1] was 0.51.
`CC(C)(C)NC1=CC2=c3cc(NC(C)(C)C)c4nc(C(F)(F)C(F)(F)C(F)(F)F)nc5c(NC(C)(C)C)cc(c3c54)C3=CC(NC(C)(C)C)=C4N=C(C(F)(F)C(F)(F)C(F)(F)F)N=C1C4C32` (centres undefined) showed a photoluminescence quantum yield (in C1CCOC1) of 0.25.
`CC(C)(C)c1ccc2c(c1)c1cc(C(C)(C)C)ccc1n2-c1cc(-n2c3ccc(C(C)(C)C)cc3c3cc(C(C)(C)C)ccc32)c(-n2c3ccc(C(C)(C)C)cc3c3cc(C(C)(C)C)ccc32)c(C#N)c1-n1c2ccc(C(C)(C)C)cc2c2cc(C(C)(C)C)ccc21` showed a photoluminescence quantum yield (in Cc1ccccc1) of 0.68.
In the case of `CC1=C(c2ccccc2)C(C)=[N+]2C1=C(c1ccccc1)c1c(C)c(-c3ccccc3)c(C)n1[B-]2(F)F`, the photoluminescence quantum yield (in Cc1ccccc1) was 0.325.
Molecule `COc1ccc(-c2ccc(-c3ccc(F)cc3)cc2)cc1` has a photoluminescence quantum yield (in C1COCCO1) of 0.57.
With `COc1cc(/C=C/C(=O)O)ccc1O` the photoluminescence quantum yield (in O) was 0.002.
For `N#CC1=C(c2ccc(-c3cccs3)s2)CC1`, the photoluminescence quantum yield (in CCO) was 0.18.
`CC1(C)c2ccccc2N(c2ccc(-c3nc([C@]45CC6CC(C[C@@H](C6)C4)C5)nc([C@]45C[C@H]6C[C@@H](C[C@H](C6)C4)C5)n3)cc2)c2ccccc21` gave a photoluminescence quantum yield (in CC(C)(C)c1ccc(-n2c3ccc([Si](c4ccccc4)(c4ccccc4)c4ccccc4)cc3c3cc([Si](c4ccccc4)(c4ccccc4)c4ccccc4)ccc32)cc1) of 0.83.
Work on `C(#Cc1ncc(-c2ccccc2)o1)c1cccnc1` yielded a photoluminescence quantum yield (in ClCCl) of 0.13.
`CCCCCCCCc1ccc(-c2c3cc(-c4cc(CCCCCCCC)c(-c5ccc(-c6sc(/C=C7\SC(N8CCCCC8)=NC7=O)cc6CCCCCCCC)s5)s4)sc3c(-c3ccc(CCCCCCCC)s3)c3cc(-c4cc(CCCCCCCC)c(-c5ccc(-c6sc(/C=C7\SC(N8CCCCC8)=NC7=O)cc6CCCCCCCC)s5)s4)sc23)s1` showed a photoluminescence quantum yield (in C1CCOC1) of 0.214, a photoluminescence quantum yield (in Cc1ccccc1) of 0.211 and a photoluminescence quantum yield (in ClC(Cl)Cl) of 0.128. It also gave a photoluminescence quantum yield (in ClCCl) of 0.144 and a photoluminescence quantum yield (in Clc1ccccc1) of 0.186.
Molecule `COC(=O)c1nc2c(N(C)C)nc(N)nc2n1Cc1ccccc1` has a photoluminescence quantum yield (in C1COCCO1) of 0.95, a photoluminescence quantum yield (in CC#N) of 0.83 and a photoluminescence quantum yield (in CO) of 0.39. It also gave a photoluminescence quantum yield (in ClCCl) of 0.95.
`Cc1cc(C)c(B(c2cc(-c3ccc(N(C)C)cc3)sc2-c2sc(-c3ccc(N(C)C)cc3)cc2P(=O)(c2ccccc2)c2ccccc2)c2c(C)cc(C)cc2C)c(C)c1` gave a photoluminescence quantum yield (in CO) of 0.18.
With `CCC1=C(C2=C(C3=C(CC)S(=O)(=O)c4ccccc43)C(F)(F)C(F)(F)C2(F)F)c2ccccc2S1(=O)=O` the photoluminescence quantum yield (in C1COCCO1) was 0.
Molecule `CCCCN1C(=O)c2cc(Oc3ccc(C(C)(C)C)cc3)c3c4c(Oc5ccc(C(C)(C)C)cc5)cc5c(=O)[nH]/c(=C\c6ccc7ccccc7n6)c6cc(Oc7ccc(C(C)(C)C)cc7)c(c7c(Oc8ccc(C(C)(C)C)cc8)cc(c2c37)C1=O)c4c56` has a photoluminescence quantum yield (in C1CCOC1) of 0.3, a photoluminescence quantum yield (in Cc1ccccc1) of 0.313 and a photoluminescence quantum yield (in ClCCl) of 0.332.
In the case of `c1ccc(-c2nn(-c3ccccc3)c3nc4ccccc4cc23)cc1`, the photoluminescence quantum yield (in C1CCCCC1) was 0.86, the photoluminescence quantum yield (in C1CCOC1) was 0.9 and the photoluminescence quantum yield (in CC#N) was 0.73. The photoluminescence quantum yield (in CC(C)=O) was 0.85, the photoluminescence quantum yield (in CCCCCl) was 0.91 and the photoluminescence quantum yield (in CCCCOCCCC) was 0.88. It also gave a photoluminescence quantum yield (in CN(C)C=O) of 0.78.
